pIC50: −log10 of the molar value.
Assays:
[1] = molecular target: Kappa-type opioid receptor (Homo sapiens) (UniProt P41145); test: Inhibition of KOR (unknown origin) relative to control; details: concentration not given here
[2] = molecular target: T1, Sigma intracellular receptor 2 (Homo sapiens, UniProt Q5BJF2); test: Inhibition of sigma2 receptor (unknown origin) relative to control; details: concentration not given here
[3] = molecular target: 3',5'-cyclic-AMP phosphodiesterase 4D (Homo sapiens) (UniProt Q08499); test: Inhibition of recombinant human N-terminal GST-tagged PDE4D3 expressed in baculovirus infected Sf9 cells at 10 uM by radioligand assay relative to control
[4] = molecular target: T1, Sigma intracellular receptor 2; test: Inhibition of sigma2 receptor (unknown origin)
[5] = molecular target: Dual specificity calcium/calmodulin-dependent 3',5'-cyclic nucleotide phosphodiesterase 1B (Homo sapiens) (UniProt Q01064); test: Inhibition of recombinant human N-terminal GST-tagged PDE1B expressed in baculovirus infected Sf9 cells at 10 uM by radioligand assay relative to control
[6] = molecular target: 3',5'-cyclic-AMP phosphodiesterase 4B (Homo sapiens, UniProt Q07343); test: Inhibition of recombinant human C-terminal His-tagged N-terminal GST-tagged PDE4B2 expressed in baculovirus infected Sf9 cells by radioligand binding assay; type: cell-based
[7] = molecular target: Alpha-2B adrenergic receptor (Homo sapiens) (UniProt P18089); test: Inhibition of adrenoceptor alpha 2B (unknown origin) relative to control; details: concentration not given here
[8] = molecular target: D(1A) dopamine receptor (Homo sapiens) (UniProt P21728); test: Inhibition of D1 (unknown origin) relative to control; details: concentration not given here
[9] = molecular target: cGMP-inhibited 3',5'-cyclic phosphodiesterase 3B (Homo sapiens) (UniProt Q13370); test: Inhibition of recombinant human N-terminal His-tagged PDE3B (592 to end residues) expressed in baculovirus infected Sf9 cells at 10 uM by radioligand assay relative to control
[10] = molecular target: Histamine H1 receptor (Homo sapiens) (UniProt P35367); test: Inhibition of histamine H1 receptor (unknown origin) relative to control; details: concentration not given here
[11] = molecular target: Sigma non-opioid intracellular receptor 1 (Homo sapiens) (UniProt Q99720); test: Inhibition of sigma1 receptor (unknown origin) relative to control; details: concentration not given here
[12] = molecular target: 5-hydroxytryptamine receptor 2C (Homo sapiens) (UniProt P28335); test: Inhibition of 5HT2C (unknown origin) relative to control; details: concentration not given here
[13] = molecular target: High affinity cGMP-specific 3',5'-cyclic phosphodiesterase 9A (Homo sapiens) (UniProt O76083); test: Inhibition of recombinant human N-terminal GST-tagged PDE9A2 expressed in baculovirus infected Sf9 cells at 10 uM by radioligand assay relative to control
Rattus norvegicus = organism: Rattus norvegicus; test: Inhibition of rat brain BZP relative to control; type: tissue-based; details: dose or concentration not given here
[14] = molecular target: Muscarinic acetylcholine receptor M5 (Homo sapiens) (UniProt P08912); test: Inhibition of muscarinic M5 receptor (unknown origin) relative to control; details: concentration not given here
[15] = Protein binding in mouse plasma assessed as unbound fraction; type: ADME, cell-free
[16] = molecular target: 5-hydroxytryptamine receptor 1D (Homo sapiens) (UniProt P28221); test: Inhibition of 5HT1D (unknown origin) relative to control; details: concentration not given here
[17] = molecular target: Histamine H3 receptor (Homo sapiens) (UniProt Q9Y5N1); test: Inhibition of histamine H3 receptor (unknown origin) relative to control; details: concentration not given here
[18] = molecular target: 3',5'-cyclic-AMP phosphodiesterase 7B (Homo sapiens) (UniProt Q9NP56); test: Inhibition of recombinant human N-terminal GST-tagged C-terminal His-tagged PDE7B (109 to end residues) expressed in baculovirus infected Sf9 cells at 10 uM by radioligand assay relative to control
[19] = molecular target: 5-hydroxytryptamine receptor 7 (Homo sapiens) (UniProt P34969); test: Inhibition of 5HT7A (unknown origin) relative to control; details: concentration not given here
[20] = molecular target: cGMP-specific 3',5'-cyclic phosphodiesterase (Homo sapiens) (UniProt O76074); test: Inhibition of recombinant human N-terminal GST-tagged PDE5A1 expressed in baculovirus infected Sf9 cells at 10 uM by radioligand assay relative to control
[21] = molecular target: Alpha-2C adrenergic receptor (Homo sapiens) (UniProt P18825); test: Inhibition of adrenoceptor alpha 2C (unknown origin) relative to control; details: concentration not given here
[22] = molecular target: cGMP-inhibited 3',5'-cyclic phosphodiesterase 3A (Homo sapiens) (UniProt Q14432); test: Inhibition of recombinant human N-terminal His-tagged PDE3A (669 to 1141 end residues) expressed in baculovirus infected Sf9 cells at 10 uM by radioligand assay relative to control
[23] = molecular target: 5-hydroxytryptamine receptor 2C (Homo sapiens, UniProt P28335); test: Inhibition of 5HT2C (unknown origin)
[24] = molecular target: Translocator protein TSPO (Homo sapiens) (UniProt P30536); test: Inhibition of PBR receptor (unknown origin) relative to control; details: concentration not given here
[25] = molecular target: High affinity 3',5'-cyclic-AMP phosphodiesterase 7A (Homo sapiens) (UniProt Q13946); test: Inhibition of recombinant human N-terminal GST-tagged PDE7A1 (122 to end residues) expressed in baculovirus infected Sf9 cells at 10 uM by radioligand assay relative to control
Chain of High affinity 3',5'-cyclic-AMP phosphodiesterase 7A (Homo sapiens) (Q13946 whole entry): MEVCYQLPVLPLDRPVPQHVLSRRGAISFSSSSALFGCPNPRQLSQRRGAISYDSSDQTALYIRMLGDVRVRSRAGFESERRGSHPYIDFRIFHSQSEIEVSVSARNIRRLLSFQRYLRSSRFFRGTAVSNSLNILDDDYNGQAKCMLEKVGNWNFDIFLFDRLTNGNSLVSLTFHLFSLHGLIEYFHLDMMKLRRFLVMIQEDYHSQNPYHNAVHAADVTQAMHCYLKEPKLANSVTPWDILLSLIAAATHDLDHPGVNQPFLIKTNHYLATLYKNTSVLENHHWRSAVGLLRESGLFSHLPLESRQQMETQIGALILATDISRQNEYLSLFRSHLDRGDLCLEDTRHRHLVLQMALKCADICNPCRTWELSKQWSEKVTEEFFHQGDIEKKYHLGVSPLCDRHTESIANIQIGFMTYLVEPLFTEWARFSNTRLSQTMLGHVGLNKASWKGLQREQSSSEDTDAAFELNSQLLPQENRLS

T1 sequence (Q5BJF2 whole entry): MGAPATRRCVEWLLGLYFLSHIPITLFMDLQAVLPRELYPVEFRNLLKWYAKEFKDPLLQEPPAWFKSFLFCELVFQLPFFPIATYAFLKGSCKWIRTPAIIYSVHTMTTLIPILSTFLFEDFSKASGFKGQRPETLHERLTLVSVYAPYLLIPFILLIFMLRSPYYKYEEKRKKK
Chain of D(1A) dopamine receptor (Homo sapiens) (P21728 whole entry): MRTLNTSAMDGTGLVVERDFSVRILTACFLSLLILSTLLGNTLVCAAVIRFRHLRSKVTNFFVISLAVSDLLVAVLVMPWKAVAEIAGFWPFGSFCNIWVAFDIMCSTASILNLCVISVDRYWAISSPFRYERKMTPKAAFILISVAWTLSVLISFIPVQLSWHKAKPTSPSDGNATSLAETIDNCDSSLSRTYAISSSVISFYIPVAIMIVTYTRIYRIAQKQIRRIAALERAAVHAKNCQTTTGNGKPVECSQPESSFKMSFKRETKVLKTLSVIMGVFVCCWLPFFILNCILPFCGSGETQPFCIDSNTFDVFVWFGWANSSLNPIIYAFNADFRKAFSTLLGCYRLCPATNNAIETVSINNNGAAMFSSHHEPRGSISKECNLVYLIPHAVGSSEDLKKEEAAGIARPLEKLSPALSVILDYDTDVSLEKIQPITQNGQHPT
Chain of Translocator protein TSPO (Homo sapiens) (P30536 whole entry, looked up): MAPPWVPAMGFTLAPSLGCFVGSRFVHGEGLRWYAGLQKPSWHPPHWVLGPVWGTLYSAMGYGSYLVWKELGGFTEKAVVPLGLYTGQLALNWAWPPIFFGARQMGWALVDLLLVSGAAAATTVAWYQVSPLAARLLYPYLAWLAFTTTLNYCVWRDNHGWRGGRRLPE
Chain of 5-hydroxytryptamine receptor 7 (Homo sapiens) (P34969 whole entry): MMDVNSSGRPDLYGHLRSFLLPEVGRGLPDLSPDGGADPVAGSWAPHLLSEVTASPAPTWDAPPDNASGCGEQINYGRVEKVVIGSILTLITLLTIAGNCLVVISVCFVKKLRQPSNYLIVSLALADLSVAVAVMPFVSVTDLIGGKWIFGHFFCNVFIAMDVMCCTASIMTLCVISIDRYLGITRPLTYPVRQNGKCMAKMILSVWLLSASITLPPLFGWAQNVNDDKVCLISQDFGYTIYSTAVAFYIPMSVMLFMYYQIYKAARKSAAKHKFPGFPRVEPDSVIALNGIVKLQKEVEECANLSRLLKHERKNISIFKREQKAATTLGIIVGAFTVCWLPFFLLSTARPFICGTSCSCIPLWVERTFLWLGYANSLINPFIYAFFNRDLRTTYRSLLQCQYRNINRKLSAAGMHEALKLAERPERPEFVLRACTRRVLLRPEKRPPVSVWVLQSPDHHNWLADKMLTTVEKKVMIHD
Chain of Muscarinic acetylcholine receptor M5 (Homo sapiens) (P08912 whole entry): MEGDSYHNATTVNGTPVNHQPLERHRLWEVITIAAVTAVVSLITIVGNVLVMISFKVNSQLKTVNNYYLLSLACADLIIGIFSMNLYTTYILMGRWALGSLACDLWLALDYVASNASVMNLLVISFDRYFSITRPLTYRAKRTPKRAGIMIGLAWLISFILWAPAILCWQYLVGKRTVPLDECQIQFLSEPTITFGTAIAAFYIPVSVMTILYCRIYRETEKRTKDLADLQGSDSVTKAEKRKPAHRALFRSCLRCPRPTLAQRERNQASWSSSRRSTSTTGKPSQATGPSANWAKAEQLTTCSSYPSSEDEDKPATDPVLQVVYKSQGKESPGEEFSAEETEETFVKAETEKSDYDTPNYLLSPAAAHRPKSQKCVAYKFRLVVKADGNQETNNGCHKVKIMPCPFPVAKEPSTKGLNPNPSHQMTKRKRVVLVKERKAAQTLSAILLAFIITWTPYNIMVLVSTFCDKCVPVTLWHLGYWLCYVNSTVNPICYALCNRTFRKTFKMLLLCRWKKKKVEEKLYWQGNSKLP
Chain of cGMP-inhibited 3',5'-cyclic phosphodiesterase 3A (Homo sapiens) (Q14432 whole entry): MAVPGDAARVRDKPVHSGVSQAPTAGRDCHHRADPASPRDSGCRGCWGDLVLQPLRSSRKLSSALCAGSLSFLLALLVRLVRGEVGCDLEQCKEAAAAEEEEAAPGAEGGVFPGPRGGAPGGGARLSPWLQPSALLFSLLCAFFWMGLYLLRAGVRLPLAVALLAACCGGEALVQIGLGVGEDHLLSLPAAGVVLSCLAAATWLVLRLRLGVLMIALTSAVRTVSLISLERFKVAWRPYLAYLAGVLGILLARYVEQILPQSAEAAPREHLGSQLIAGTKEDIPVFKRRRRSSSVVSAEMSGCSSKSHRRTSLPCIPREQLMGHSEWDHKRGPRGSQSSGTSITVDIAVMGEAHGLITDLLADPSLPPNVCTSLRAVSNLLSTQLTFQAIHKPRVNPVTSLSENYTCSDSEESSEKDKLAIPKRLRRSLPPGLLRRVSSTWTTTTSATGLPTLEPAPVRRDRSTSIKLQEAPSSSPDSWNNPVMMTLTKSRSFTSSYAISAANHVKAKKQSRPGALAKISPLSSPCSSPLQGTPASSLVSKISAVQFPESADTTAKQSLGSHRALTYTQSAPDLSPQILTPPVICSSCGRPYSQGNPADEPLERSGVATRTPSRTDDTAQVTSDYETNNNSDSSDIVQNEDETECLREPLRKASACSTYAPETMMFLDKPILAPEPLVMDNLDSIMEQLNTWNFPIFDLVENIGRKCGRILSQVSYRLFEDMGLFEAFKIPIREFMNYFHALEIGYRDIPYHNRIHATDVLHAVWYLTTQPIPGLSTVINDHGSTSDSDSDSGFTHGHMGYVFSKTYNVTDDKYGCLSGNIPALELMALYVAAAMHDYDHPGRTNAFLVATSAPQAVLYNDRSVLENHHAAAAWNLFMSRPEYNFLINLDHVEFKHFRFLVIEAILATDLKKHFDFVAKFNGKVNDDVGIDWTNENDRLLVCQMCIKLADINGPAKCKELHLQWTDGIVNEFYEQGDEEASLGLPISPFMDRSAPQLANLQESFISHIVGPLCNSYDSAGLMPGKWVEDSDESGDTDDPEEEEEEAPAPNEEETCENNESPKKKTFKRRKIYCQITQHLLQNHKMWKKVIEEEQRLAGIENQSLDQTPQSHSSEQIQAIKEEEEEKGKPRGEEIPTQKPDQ
Chain of 3',5'-cyclic-AMP phosphodiesterase 4D (Homo sapiens) (Q08499 whole entry): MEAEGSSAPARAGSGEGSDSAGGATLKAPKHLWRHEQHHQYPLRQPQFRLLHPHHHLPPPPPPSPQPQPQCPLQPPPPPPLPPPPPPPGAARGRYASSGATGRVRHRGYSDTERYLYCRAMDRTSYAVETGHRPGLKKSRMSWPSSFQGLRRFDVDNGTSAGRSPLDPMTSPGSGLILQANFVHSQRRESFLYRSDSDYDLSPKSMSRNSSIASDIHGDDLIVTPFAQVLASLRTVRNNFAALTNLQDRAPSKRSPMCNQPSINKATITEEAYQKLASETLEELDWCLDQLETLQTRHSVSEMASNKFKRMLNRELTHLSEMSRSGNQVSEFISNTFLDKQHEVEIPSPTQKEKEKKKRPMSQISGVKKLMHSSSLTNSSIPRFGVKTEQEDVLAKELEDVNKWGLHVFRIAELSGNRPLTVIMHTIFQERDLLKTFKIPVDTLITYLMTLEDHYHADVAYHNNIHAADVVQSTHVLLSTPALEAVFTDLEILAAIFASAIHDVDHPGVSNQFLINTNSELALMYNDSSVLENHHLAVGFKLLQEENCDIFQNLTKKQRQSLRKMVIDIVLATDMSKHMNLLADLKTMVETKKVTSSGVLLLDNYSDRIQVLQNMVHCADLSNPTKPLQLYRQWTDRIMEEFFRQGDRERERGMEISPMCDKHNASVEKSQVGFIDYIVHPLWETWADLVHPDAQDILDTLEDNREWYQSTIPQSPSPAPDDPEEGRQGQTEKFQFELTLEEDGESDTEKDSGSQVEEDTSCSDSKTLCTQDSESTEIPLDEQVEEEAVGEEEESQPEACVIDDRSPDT
Chain of Kappa-type opioid receptor (Homo sapiens) (P41145 whole entry): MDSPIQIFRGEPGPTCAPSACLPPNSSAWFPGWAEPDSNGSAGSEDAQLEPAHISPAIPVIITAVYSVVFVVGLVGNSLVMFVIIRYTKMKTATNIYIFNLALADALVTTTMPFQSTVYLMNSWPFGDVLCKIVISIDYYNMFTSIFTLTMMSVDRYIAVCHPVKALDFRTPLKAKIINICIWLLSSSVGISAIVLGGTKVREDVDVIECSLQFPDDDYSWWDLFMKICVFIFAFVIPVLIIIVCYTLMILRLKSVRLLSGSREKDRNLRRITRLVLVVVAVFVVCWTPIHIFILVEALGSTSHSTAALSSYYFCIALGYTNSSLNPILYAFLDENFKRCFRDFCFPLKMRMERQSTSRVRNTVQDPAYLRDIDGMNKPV
Chain of 5-hydroxytryptamine receptor 1D (Homo sapiens) (P28221 whole entry): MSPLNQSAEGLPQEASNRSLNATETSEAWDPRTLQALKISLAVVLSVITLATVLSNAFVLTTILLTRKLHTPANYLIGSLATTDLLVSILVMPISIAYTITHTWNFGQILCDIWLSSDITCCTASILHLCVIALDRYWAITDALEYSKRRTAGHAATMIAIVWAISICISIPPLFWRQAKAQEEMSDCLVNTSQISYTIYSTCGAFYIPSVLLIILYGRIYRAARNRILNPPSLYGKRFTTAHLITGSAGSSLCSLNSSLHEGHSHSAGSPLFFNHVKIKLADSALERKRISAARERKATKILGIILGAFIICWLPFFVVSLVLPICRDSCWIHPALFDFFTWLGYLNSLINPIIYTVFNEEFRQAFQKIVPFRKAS

- inhibition [1]: < 50%
- inhibition [2]: 70%
- inhibition [3]: < 50%
- pIC50 [4]: 5.11
- inhibition [5]: < 50%
- pIC50 [6]: 6.85
- inhibition [7]: < 50%
- inhibition [8]: < 50%
- inhibition [9]: 87%
- inhibition [10]: < 50%
- inhibition [11]: < 50%
- inhibition [12]: 59%
- inhibition [13]: < 50%
- inhibition [14]: < 50%
- fraction unbound [15]: 0.027
- inhibition [16]: < 50%
- inhibition [17]: < 50%
- inhibition [18]: < 50%
- inhibition [19]: < 50%
- inhibition [20]: < 50%
- inhibition [21]: < 50%
- inhibition [22]: < 50%
- pIC50 [23]: < 5.00
- inhibition [24]: < 50%
- inhibition [25]: < 50%
Structure (SMILES): O=C(c1nc2cccnc2n1-c1ccc(Cl)c(Cl)c1)N1CC(F)(F)C1
- inhibition (Rattus norvegicus): < 50%

Reference: ChEMBL document CHEMBL4725427, “Synthesis and SAR Studies of 1H-Pyrrolo[2,3-b]pyridine-2-carboxamides as Phosphodiesterase 4B (PDE4B) Inhibitors” (ACS Med Chem Lett, 2020)
